The test system of experiment [1] is HBV (genotype C_AT; wild-type strain). The experiment can be described thus: Virus titer in chimeric mice having human liver infected with genotype C_AT HBV (Example 4). In kind it is in vivo, Hepatitis B virus. The note with it: second week, formula (III) 5 mg/kg iv daily, PEG-IFN 30 μg/kg sc, ETV 0.02 mg/kg oral daily (FIG. 4). The text has this: (§1) Next, serum HBV was purified by the same method as described in Example 1, and HBV was quantified by measuring HBV-DNA using real-time PCR method. The sequences of primers HBSF2: 5′-CTTCATCCTGCTGCTATGCCT-3′[nt 406-426] (SEQ ID NO: 4) and HBSR2: 5′-AAAGCCCAGGATGATGGGAT-3′[nt 646-627] (SEQ ID NO: 5), and the sequence of TaqMan probe HBSP2 (nt 461-488) (5′-ATGTTGCCCGTTTGTCCTCTAATTCCA-3′ (SEQ ID NO: 6)) were the same as those described in the reference (Abe A, Inoue K, Tanaka T, Kato J, Kajiyama N, Kawaguchi R, Tanaka S, et al. Quantitation of hepatitis B virus genomic DNA by real-time detection PCR. J Clin Microbiol (1999) 37: 2899-2903).
The same test as described in Example 3 was carried out using chimeric mice (purchased from PhoenixBio Co., Ltd.) having human liver infected with HBV (genotype C_AT; wild-type strain). The compound represented by formula (III) was administered at 5 mg/kg (intravenous injection every day), while PEG-IFN was administered at 30 μg/kg (subcutaneous injection). Entecavir (ETV) was administered at 0.02 mg/kg (oral administration every day).

Experiment [2] has as its system genotype C HBV (L180M+S202G+M204V; ETV-resistant strain). Description: Virus titer in chimeric mice having human liver infected with ETV-resistant genotype C HBV (Example 5). In kind it is in vivo, Hepatitis B virus. The note with it: formula (III) 5 mg/kg iv daily, PEG-IFN 30 μg/kg sc, ETV 0.02 mg/kg oral daily (FIG. 5).
Source text: as §1
The same test as described in Example 3 was carried out using chimeric mice (purchased from PhoenixBio Co., Ltd.) having human liver infected with genotype C HBV (L180M+S202G+M204V; ETV-resistant strain). The compound represented by formula (III) was administered at 5 mg/kg (intravenous injection every day), while PEG-IFN was administered at 30 μg/kg (subcutaneous injection). Entecavir (ETV) was administered at 0.02 mg/kg (oral administration every day).

Experiment [3] has as its system HBV strain C, M204V (YVDD) (Lamivudine-resistant strain). Description: HBV propagation suppression in Huh-7 cells, strain C (Lamivudine-resistant). Type of experiment: cell-based. The note with it: Hepatitis B virus, Huh-7, read-out: 50% propagation suppression. The method, then: (§2) FIG. 1B is a graph showing the effect of an agent on Huh-7 cells infected with various HBV strains. • A: highly Lamivudine-resistant strain, 50% propagation suppression=3.4 μM; • B: Entecavir-resistant strain, 50% propagation suppression=3.7 μM; • C: Lamivudine-resistant strain, 50% propagation suppression=3.6 μM; • Wild: wild-type strain, 50% propagation suppression=3.2
(§3) On the day before HBV infection, about 100,000 Huh-7 cells were plated in 12-well plates (FALCON, 353043) using culture medium DMEM (SIGMA, D6429).
(§4) On the day of infection, 50 μl of a homogenous mixture of 0.5 μg of HBV-DNA (described in “Sugiyama M, et al. HEPATOLOGY, Vol. 44: 915-924, 2006”), 1.5 μl of FUGENE6 (Roche Diagnostics; 11 814 443 001), 5 μl of SEAP, and 43 μl of OPTIMEM (Invitrogen; 31985) was added to the Huh-7 cells in each well. […]
(§5) HBV was quantified by measuring HBV-DNA using real-time PCR (Device used: Applied Biosystems, 4318157). […]
(§6) (SEQ ID NO: 2); and HBVSP2 has the sequence of: FAM-[…]-TAMRA (SEQ ID NO: 3)). […] HBV-DNA copy numbers were determined from the obtained fluorescent signals.
(§7) Furthermore, the effect of suppressing HBV propagation was assessed by the same method using Lamivudine- and Entecavir-resistant strains (A, L180M+M204V; B, L180M+M204V+T184L; C, M204V (YVDD)) as well as wild-type HBV strain (Wild).

The subject of experiment [4] is HBV strain A, L180M+M204V (highly Lamivudine-resistant strain). The experiment can be described thus: HBV propagation suppression in Huh-7 cells, strain A (highly Lamivudine-resistant). Type of experiment: cell-based. The note with it: Hepatitis B virus, Huh-7, read-out: 50% propagation suppression. The method, then: as §2, §3, §4, §5, §6, §7
The subject of experiment [5] is HBV (genotype C_AT; wild-type strain). Description: Anti-HBV effect on HBV-infected Huh-7 cells, HBV-DNA in supernatant by real-time PCR (wild-type strain). Type of experiment: cell-based. The note with it: Hepatitis B virus. The method, then:
The present inventors assessed the anti-HBV effect of the compound represented by formula (III) on Huh-7 cells infected with HBV (genotype C_AT; wild-type strain).
as §3
On the day of infection, 50 μl of a homogenous mixture of 0.5 μg of HBV-DNA (described in “Sugiyama M, et al. HEPATOLOGY, Vol. 44: 915-924, 2006”), 1.5 μl of FUGENE6 (Roche Diagnostics; 11 814 443 001), 5 μl of SEAP, and 43 μl of OPTIMEM (Invitrogen; 31985) was added to the Huh-7 cells in each well. Then, the compound represented by formula (III) was added at a final concentration of 0, 3, 10, or 30 μM.
The cells were cultured at 37° C. under 5% CO2 for three days, and then culture supernatant was collected from each well. The supernatant was treated with deoxyribonuclease (DNase) to remove free DNA. […]
as §5, §6
For orientation: In qPCR the cycle at which signal appears reflects the starting amount.

In experiment [6] the test system is HBV strain B, L180M+M204V+T184L (Entecavir-resistant strain). Description: HBV propagation suppression in Huh-7 cells, strain B (Entecavir-resistant). The note with it: Hepatitis B virus, Huh-7, read-out: 50% propagation suppression. Type of experiment: cell-based. The method, then: as §2, §3, §4, §5, §6, §7

Read-outs that look alike come from different tables or passages of the source.

Regarding `C=C1[C@H](CO)[C@@H](O)C[C@@H]1n1cnc2c(=O)[nH]c(N)nc21` [ETV, Entecavir], the “mean decrease of virus titer” value in experiment [1] is 1.4 Log. The same molecule had a viral decrease in experiment [2] of 0.3 Log.
`CC#CCOc1ccc(C[C@H](NC(=O)[C@@H](/C=C/CCCCCCC(=O)CCCCCCC)[C@@](O)(CC(=O)O)C(=O)O)C(=O)O)cc1` [compound represented by formula (III)]: the IC50 was 3.6 µM in experiment [3]; 3.4 µM in experiment [4]; about 3 µM in experiment [5] (72 h, Huh-7 cells, genotype C_AT wild-type HBV, three days culture, HBV-DNA in supernatant (FIG. 1A), read-out: 50%-inhibition concentration (IC50)); 3.2 µM in experiment [5] (Huh-7, read-out: 50% propagation suppression); 3.7 µM in experiment [6].

These data come from patent publication US20110160252A1, “PHARMACEUTICAL COMPOSITIONS FOR TREATMENT OR PREVENTION OF HBV INFECTION” (priority 2008, published 2011).
